Measurements reported in paper PMC7822819, “Discovery of a new class of integrin antibodies for fibrosis” (Scientific Reports, 2021).
Read-outs that look alike come from different tables or passages of the source.

Key:
[1] = biological target: T1, human αvβ5 (Homo sapiens, UniProt P06756+P18084); assay: AlphaLISA integrin-ligand binding assay; type: biochemical
T1 construct: hαV 1 992; hβ5 1 719; made in house; host or cells: Expi293
Description: (§1) In the AlphaLISA integrin assays, we used a HEPES based buffer (25 mM HEPES pH 7.4, 137 mM NaCl, 1 mM MgCl2, 1 mM MnCl2, 2 mM CaCl2, 2.7 mM KCl, and 0.05% Tween-20). Optimal assay conditions were determined with a titration of the reagents for signal noise ratio (S/N), linear range, etc. For the respective integrins, we used the final concentrations described in Supplemental Table S3. Briefly, the testing antibody (8 μL) was added as a 4x (of Final testing concentration) solution in the HEPES buffer described previously into a 384w AlphaPlate (Perkin Elmer #6005350). Then the integrin and ligand were added sequentially as 8x (4 μL each). Plates were sealed and incubated at room temperature for 2 h. Then 4 × acceptor bead solution (8 μL) was added, and the plates were resealed and incubated at RT for 1 h. Finally, 4 × (8 μL) donor beads solution was added in a darkened room and incubated for 45 min at room temperature. Plates were read on the Envision (Perkin Elmer) in AlphaScreen mode within 3 h of donor bead addition.
(§2) Supplemental Table S3. integrin AlphaLIS A assay reagents and conditions Human A l phal i sa Inte gri n A ssays: Fi nal Condi ti ons […]
(§3) ( batch de pe nde nt) anti body A l phaLi sa A cce ptor havb1 1. 4 nM 1. 0 nMα - Fi brone cti n human Fi brone cti n n/a A cce ptor be ads/ Pe rki n 10. 0 ug/ m 10. 0 ug/ m […]
(§4) havb3 3. 0 nM 10. 0 nMhuman V i trone cti n- GST α - GS T A cce p t o r ug/ m Stre ptavi di n Donor ug/ m tagge d n/a be ads/ Pe rki n 15. 0 l be ads/ Pe rki n El me r 15. 0 l […]
(§5) havb6 0. 1 nM 0. 5 nM 3. […]
(§6) Mouse A l phal i sa Inte gri n A ssays: Fi nal Condi ti ons […]
(§7) m aV b 1 4. 3 nM 1. 0 nMmouse f i brone cti n A bcam α - Fi brone cti n ( Rabbi t […]
(§8) 0 nM 5. […] 0nM be ads/ Pe rki n El me r […]
(§9) m aV b 6 1. 4 nM 2. 5 nMmouse LA P- 6Hi s α - 6x HI S / P e rk i n El m e r ug/ m ug/ m m aV b 8 1. 0 nM 2. 5 nMChe mpartne rn/a( A L 128) 15 l 15 l

[2] = biological target: T2, mouse αvβ3 (Mus musculus, UniProt O54890+P43406); assay: AlphaLISA integrin-ligand binding assay; type: biochemical; conditions: Fig. 4B; read-out: IC50 Mouse integrin AlphaLISA assays: mαvβ3
T2 construct: mαV 1 988; m β3 1 717; made in house; host or cells: Expi293
Description: as §1, §2, §3, §4, §5, §6, §7, §8, §9

[3] = biological target: T3, mouse αvβ8 (Mus musculus, UniProt P43406+Q0VBD0); assay: AlphaLISA integrin-ligand binding assay; type: biochemical; conditions: Fig. 4B; read-out: IC50 Mouse integrin AlphaLISA assays: mαvβ8
T3 construct: mαV 1 988; m β8 1 679; made in house; host or cells: Expi293
Description: as §1, §2, §3, §4, §5, §6, §7, §8, §9

[4] = tested on: IPF patient lung fibroblasts; assay: TGFβ-induced αSMA high-content imaging; type: cell-based, human; conditions: even at 10 μM
Description: Normal human lung fibroblasts (Lonza) and Primary Human IPF Lung Parenchymal Fibroblasts (Donor2) (BioIVT, #PCR-70-0214) were incubated at 37 °C and 5% CO2. To induce fibrotic response in primary cells, a final concentration of 5 ng/ml of recombinant human TGFβ1 (BioLegend, #580702) was added to the culture media and treated for 24 ~ 48 h. Anti-TGFβ neutralizing antibody (1D11) and the isotype control mouse IgG1 were from BioXcell. SB-525334 and bleomycin were from Sigma. MK-0429 was synthesized by Merck & Co., Inc., Kenilworth, NJ, USA. CHOK1-integrin stable lines were cultured in DMEM/F12, Glutamax (Gibco #10565018), 10% FBS (Gibco 310091148), 1 × Pen/Strep (Gibco 315140-148), and 6 ug/mL Puromycin (Gibco #A1113803).
Primary cells (passage 3–5) were grown on Cell carrier Ultra, col1 coated 96-well plates (Perkin Elmer, #6055700) at a density of 25,000 cells/well. Once the cells adhere, they were starved in serum free media for 24 h followed by addition of treatments i.e. 5 ng/mL TGFβ (Biolegend #580702) ± inhibitors. Cells were pre-treated with inhibitors for 30 min prior to the addition of TGFβ stimulation. 48hours post treatment, the cells were fixed in 4% methanol free paraformaldehyde (ThermoFisher Scientific #28908) for 20 min at room temperature and incubated with anti-alpha smooth muscle Actin antibody (Abcam #ab7817) at 1:4000 overnight at 4 °C. […]

[5] = biological target: human αvβ1 (Homo sapiens, UniProt P05556+P06756); assay: Latent TGFβ activation assay (TMLC / CHOK1-integrin co-culture, PAI-1 luciferase); type: cell-based; parameters: expressed in transfected cells; conditions: in words
human αvβ1, sequence (P06756 31-1048): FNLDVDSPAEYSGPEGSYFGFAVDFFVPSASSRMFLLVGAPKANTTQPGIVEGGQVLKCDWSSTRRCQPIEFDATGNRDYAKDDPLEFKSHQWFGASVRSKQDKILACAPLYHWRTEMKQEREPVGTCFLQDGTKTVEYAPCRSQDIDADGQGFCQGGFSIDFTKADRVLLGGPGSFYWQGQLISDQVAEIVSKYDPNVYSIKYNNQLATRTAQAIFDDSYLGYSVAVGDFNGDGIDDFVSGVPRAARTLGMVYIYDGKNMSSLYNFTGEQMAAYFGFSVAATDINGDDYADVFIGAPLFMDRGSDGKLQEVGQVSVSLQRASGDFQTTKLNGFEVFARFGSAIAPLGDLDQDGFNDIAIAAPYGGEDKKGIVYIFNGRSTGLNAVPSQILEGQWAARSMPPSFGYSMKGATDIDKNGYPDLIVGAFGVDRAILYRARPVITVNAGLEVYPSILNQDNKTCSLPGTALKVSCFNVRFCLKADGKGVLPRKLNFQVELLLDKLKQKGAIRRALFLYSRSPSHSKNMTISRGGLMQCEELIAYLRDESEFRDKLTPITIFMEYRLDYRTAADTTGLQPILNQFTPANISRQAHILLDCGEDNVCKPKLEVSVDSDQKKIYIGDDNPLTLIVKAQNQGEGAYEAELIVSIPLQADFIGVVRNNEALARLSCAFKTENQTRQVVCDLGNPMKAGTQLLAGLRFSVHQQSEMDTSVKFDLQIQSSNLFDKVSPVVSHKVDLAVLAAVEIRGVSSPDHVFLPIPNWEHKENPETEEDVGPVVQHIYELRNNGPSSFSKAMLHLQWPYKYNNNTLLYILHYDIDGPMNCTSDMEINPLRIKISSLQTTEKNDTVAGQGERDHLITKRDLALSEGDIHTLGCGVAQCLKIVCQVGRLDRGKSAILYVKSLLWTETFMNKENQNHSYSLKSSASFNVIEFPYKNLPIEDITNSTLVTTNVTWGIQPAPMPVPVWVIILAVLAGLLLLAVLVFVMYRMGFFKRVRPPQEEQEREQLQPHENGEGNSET
human αvβ1, sequence (P05556 21-798): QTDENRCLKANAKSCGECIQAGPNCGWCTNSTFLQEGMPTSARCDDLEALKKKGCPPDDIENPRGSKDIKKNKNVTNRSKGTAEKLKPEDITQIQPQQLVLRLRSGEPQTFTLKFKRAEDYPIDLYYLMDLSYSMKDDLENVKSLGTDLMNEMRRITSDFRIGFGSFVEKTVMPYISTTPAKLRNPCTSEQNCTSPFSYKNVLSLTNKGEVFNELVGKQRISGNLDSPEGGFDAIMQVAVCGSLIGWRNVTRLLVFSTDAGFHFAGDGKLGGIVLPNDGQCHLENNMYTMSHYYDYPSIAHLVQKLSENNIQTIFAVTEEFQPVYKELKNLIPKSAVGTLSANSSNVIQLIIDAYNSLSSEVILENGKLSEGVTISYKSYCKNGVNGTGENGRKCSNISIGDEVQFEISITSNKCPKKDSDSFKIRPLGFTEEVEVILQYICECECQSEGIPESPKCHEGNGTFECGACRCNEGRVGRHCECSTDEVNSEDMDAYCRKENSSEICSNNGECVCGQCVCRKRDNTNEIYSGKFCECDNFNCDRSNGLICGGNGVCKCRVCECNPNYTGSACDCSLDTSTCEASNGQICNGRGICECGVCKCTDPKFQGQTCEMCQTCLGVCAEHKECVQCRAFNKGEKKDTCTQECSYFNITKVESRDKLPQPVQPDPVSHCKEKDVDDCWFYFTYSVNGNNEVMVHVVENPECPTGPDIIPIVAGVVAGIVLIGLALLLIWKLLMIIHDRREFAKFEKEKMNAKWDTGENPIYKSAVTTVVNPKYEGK
Description: (§10) Transfected mink lung epithelial cell (TMLC) cell line containing the TGFβ responsive PAI-1 promoter driving luciferase expression[29] and the CHO-K1 human and mouse αvβx integrin cell lines were grown under optimized growth conditions to 90% confluency. TMLC cells were trypsinized and plated at 25,000 cells/well in 50 μL in Costar clear bottom white walled plates. In a separate plate, 25 μL of serially diluted antibodies at 4X concentration were added to wells containing 25 μL of either 25,000 cells of human or mouse αvβx cells. After a brief mixing, the 50 μL mixture was transferred to the TMLC cell plates for a total volume of 100 μL and incubated at 37 °C for 16 h. 100 μL of ONE-Glo kit (#PRE6120) was added to each well and read after 3–5 min on the Envision plate reader.

[6] = biological target: human αvβ6 (Homo sapiens, UniProt P06756+P18564); assay: as above; type: cell-based; parameters: expressed in transfected cells; conditions: in words
human αvβ6, sequence (P06756 31-1048): as the sequence (P06756 31-1048) above
human αvβ6, sequence (P18564 22-788): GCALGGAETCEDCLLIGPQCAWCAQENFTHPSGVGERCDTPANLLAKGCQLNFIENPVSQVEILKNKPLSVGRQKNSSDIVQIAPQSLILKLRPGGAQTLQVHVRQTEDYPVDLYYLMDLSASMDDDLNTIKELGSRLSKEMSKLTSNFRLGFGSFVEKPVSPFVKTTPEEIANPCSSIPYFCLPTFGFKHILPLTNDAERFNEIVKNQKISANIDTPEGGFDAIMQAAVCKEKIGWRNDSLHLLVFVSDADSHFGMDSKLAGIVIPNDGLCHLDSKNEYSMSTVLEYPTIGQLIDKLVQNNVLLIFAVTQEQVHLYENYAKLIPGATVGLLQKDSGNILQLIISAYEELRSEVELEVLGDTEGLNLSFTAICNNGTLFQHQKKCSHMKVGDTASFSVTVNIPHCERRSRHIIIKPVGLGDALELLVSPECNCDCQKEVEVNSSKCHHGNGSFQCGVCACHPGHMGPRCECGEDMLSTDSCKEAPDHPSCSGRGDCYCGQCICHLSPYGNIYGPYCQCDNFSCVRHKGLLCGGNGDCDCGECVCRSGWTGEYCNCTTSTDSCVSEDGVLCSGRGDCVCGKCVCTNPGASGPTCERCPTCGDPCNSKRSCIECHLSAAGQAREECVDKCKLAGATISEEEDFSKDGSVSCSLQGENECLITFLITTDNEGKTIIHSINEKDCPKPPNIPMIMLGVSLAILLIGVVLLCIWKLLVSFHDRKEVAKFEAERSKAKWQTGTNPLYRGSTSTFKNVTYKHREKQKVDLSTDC
Description: as §10

[7] = biological target: human αvβ8 (Homo sapiens, UniProt P06756+P26012); assay: as above; type: cell-based; parameters: expressed in transfected cells; conditions: in words
human αvβ8, sequence (P06756 31-1048): as the sequence (P06756 31-1048) above
human αvβ8, sequence (P26012 43-769): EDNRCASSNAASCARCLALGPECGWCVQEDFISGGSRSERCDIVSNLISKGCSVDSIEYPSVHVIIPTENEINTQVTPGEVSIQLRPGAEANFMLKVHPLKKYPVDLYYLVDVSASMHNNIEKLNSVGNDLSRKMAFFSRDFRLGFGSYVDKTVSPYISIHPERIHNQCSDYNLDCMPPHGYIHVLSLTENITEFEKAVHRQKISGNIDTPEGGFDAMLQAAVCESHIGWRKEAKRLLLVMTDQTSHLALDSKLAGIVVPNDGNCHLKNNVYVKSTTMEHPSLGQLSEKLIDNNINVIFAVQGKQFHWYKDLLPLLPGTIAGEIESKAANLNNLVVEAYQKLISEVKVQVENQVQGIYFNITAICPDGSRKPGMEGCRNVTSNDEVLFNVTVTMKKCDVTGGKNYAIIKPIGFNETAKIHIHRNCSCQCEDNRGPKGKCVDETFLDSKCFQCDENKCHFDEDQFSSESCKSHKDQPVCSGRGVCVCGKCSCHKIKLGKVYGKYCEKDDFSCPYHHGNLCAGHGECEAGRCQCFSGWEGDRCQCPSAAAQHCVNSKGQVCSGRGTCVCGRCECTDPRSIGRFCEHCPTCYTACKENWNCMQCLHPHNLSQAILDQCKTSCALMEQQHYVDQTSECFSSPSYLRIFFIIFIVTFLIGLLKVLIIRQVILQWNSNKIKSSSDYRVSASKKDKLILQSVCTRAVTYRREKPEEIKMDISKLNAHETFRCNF
Description: as §10

[8] = biological target: mouse αvβ1 (Mus musculus, UniProt P09055+P43406); assay: as above; type: cell-based; parameters: expressed in transfected cells; conditions: in words
Description: as §10

T1 sequence (P06756 31-992): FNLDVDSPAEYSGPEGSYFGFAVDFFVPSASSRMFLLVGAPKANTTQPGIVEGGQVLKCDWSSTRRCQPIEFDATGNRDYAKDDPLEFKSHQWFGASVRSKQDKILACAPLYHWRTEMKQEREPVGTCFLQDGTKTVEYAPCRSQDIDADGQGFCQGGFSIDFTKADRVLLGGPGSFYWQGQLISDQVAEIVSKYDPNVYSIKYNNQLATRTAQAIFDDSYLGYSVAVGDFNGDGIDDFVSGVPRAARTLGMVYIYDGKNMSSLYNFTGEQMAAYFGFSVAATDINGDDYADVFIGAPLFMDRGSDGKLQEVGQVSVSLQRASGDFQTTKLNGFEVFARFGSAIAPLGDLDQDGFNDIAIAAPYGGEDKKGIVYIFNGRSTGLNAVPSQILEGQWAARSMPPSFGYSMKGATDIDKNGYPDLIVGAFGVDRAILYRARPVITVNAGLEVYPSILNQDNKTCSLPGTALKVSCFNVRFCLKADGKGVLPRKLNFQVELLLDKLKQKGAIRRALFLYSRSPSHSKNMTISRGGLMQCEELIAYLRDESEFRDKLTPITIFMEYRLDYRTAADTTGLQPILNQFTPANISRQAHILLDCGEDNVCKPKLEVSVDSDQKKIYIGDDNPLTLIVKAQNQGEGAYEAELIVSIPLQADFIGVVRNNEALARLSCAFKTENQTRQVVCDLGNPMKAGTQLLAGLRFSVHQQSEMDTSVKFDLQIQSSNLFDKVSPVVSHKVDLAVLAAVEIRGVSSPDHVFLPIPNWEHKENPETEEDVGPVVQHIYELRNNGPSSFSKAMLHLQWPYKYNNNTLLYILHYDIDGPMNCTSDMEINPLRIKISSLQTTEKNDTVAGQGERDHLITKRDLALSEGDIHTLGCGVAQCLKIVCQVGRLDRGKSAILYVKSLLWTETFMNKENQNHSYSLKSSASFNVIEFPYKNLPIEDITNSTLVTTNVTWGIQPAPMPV
T1 sequence (P18084 24-719): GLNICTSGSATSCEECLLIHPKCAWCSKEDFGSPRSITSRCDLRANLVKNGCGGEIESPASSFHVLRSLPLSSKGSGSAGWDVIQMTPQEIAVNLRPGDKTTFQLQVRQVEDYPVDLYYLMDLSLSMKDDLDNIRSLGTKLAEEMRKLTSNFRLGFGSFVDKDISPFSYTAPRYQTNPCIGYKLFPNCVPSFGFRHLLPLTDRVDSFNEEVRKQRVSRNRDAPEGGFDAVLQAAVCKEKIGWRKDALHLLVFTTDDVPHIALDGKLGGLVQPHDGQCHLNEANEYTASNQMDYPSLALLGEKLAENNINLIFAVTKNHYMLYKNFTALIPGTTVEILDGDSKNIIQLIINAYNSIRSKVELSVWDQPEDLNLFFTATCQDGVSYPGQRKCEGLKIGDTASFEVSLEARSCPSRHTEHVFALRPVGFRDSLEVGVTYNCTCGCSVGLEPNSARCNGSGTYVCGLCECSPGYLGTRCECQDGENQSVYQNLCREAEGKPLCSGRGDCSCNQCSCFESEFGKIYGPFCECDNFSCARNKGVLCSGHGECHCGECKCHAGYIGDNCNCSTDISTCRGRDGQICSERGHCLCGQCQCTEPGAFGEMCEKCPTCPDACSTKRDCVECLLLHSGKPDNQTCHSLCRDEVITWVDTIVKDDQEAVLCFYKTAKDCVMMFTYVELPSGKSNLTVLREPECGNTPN

## COc1ccc(C(CC(=O)O)N2CCN(CCCc3ccc4c(n3)NCCC4)C2=O)cn1 (stereo not drawn) [MK-0429]
[1]; Fig. 3D, assay optimisation, read-out: IC50 human αvβ5 AlphaLISA
  IC50: 9.9 nM
[1]; Fig. 4B, read-out: IC50 Human integrin AlphaLISA assays: hαvβ5
  IC50: 2.9 nM
[2]
  IC50: 0.9 nM
[3]
  IC50: 5.3 nM
[4]
  Inhibition of αSMA induction: minimal activity
[5]
  Inhibition of latent TGFβ activation, human αvβ1 co-culture: strong inhibitory effect
[6]
  Inhibition of latent TGFβ activation, human αvβ6 co-culture: strong inhibitory effect
[7]
  Inhibition of latent TGFβ activation, human αvβ8 co-culture: strong inhibitory effect
[8]
  Inhibition of latent TGFβ activation, mouse αvβ1 co-culture: strong inhibitory effect
